Reference: ChEMBL document CHEMBL1201862, “PubChem BioAssay data set” (2004)
The source made the active and inactive calls.

What was measured:
[1] = target: T1, Polyadenylate-binding protein 1 (Homo sapiens, UniProt P11940); assay: MLLE binding blockers, Cy5 peptide tracer – biochemical, fluorescence polarization, Cy5-PAM2 peptide, secondary, miRNA deadenylation inhibitor project, dose response (AID 602260); type: functional; settings: read-out: IC50_Mean
[2] = target: T1, Polyadenylate-binding protein 1; assay: MLLE domain peptide-binding blockers, IC50 – biochemical, fluorescence polarization, FITC-PAM2 peptide, dose response (AID 602259); type: functional; settings: read-out: IC50_Mean
[3] = target: Glucose-6-phosphate 1-dehydrogenase (Homo sapiens, UniProt P11413); assay: inhibition of Homo sapiens G6PD, dose series – biochemical, fluorescence, selectivity assay for P. falciparum G6PD inhibitor project, dose response (AID 504792); type: functional
Leucine aminopeptidase = target: T2, Leucine aminopeptidase (Plasmodium falciparum 3D7, UniProt Q8IL11); assay: P. falciparum M17LAP inhibitors, primary screen, biochemical, fluorogenic H-Leu-NHMec substrate, 1536-well (AID 1619); type: functional
T2 sequence (Q8IL11 whole entry): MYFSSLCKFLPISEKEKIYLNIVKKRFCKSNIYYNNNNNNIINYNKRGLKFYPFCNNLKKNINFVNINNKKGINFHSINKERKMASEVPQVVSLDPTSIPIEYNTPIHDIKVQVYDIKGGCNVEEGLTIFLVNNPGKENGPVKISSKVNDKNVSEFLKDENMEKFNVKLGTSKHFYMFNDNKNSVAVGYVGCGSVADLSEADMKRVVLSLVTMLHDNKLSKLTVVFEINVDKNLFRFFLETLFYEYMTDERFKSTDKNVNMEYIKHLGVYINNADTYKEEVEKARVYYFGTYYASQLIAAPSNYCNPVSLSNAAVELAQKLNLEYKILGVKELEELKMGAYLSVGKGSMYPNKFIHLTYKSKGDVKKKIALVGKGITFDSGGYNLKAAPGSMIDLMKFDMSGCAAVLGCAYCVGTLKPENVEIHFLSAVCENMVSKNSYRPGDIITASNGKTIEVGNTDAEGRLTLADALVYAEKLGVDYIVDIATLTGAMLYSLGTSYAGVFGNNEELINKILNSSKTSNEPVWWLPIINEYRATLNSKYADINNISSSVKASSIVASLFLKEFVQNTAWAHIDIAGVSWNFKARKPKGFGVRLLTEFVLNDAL

[4] = target: T3, DNA dC->dU-editing enzyme APOBEC-3A (Homo sapiens, UniProt P31941); assay: Dose Response confirmation of small molecule APOBEC3A DNA Deaminase Inhibitors via a fluorescence-based single-stranded DNA deaminase assay. [Related pubchem assays (depositor defined):AID493011, AID493024]; type: functional
[5] = target: T4, DNA dC->dU-editing enzyme APOBEC-3G (Homo sapiens, UniProt Q9HC16); type: functional
[6] = HEK-293T viability loss after treatment – luminescence, T-cell screen hits, cytotoxicity control for TCR NF-kB inhibitor project, dose response (AID 489026); type: functional, cell-based;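 further: cells exposed to compound about 14 hours before the viability readout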
[7] = target: T3, DNA dC->dU-editing enzyme APOBEC-3A; assay: A3A deaminase inhibition for selectivity – biochemical, dose response (AID 504722); type: functional
[8] = target: T4, DNA dC->dU-editing enzyme APOBEC-3G; assay: Dose Response confirmation of small molecule APOBEC3G DNA Deaminase Inhibitors via a fluorescence-based single-stranded DNA deaminase assay. [Related pubchem assays (depositor defined):AID493012, AID493028]; type: functional
[9] = target: Voltage-dependent T-type calcium channel subunit alpha-1H (Homo sapiens, UniProt O95180); type: functional;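 further: channel activity triggered by adding a high calcium stimulation buffer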
[10] = viability of PTEN-deleted HCT116 cells – cell-based, HCT116 PTEN knockout, dose response (AID 1047); type: functional;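 further: HCT116 colon tumor cells with PTEN knocked out; cells exposed to compound for 60 hours before readout; potency for loss of cell viability measured by luminescence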
[11] = viability of HCT116 lacking mutant beta-catenin – cell-based, human colon tumor, dose response (AID 1045); type: functional;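 further: HCT116 colon tumor cells with beta catenin knocked out; cells exposed to compound for 60 hours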
Aminopeptidase N = target: T5, Aminopeptidase N (Plasmodium falciparum FcB1/Columbia, UniProt O96935); assay: malaria alanyl aminopeptidase activity blockers – biochemical, fluorogenic H-Leu-NHMec substrate, 1536-well (AID 1445); parameters: species or system Plasmodium falciparum 3D7, 3D7
T5 sequence (O96935 whole entry): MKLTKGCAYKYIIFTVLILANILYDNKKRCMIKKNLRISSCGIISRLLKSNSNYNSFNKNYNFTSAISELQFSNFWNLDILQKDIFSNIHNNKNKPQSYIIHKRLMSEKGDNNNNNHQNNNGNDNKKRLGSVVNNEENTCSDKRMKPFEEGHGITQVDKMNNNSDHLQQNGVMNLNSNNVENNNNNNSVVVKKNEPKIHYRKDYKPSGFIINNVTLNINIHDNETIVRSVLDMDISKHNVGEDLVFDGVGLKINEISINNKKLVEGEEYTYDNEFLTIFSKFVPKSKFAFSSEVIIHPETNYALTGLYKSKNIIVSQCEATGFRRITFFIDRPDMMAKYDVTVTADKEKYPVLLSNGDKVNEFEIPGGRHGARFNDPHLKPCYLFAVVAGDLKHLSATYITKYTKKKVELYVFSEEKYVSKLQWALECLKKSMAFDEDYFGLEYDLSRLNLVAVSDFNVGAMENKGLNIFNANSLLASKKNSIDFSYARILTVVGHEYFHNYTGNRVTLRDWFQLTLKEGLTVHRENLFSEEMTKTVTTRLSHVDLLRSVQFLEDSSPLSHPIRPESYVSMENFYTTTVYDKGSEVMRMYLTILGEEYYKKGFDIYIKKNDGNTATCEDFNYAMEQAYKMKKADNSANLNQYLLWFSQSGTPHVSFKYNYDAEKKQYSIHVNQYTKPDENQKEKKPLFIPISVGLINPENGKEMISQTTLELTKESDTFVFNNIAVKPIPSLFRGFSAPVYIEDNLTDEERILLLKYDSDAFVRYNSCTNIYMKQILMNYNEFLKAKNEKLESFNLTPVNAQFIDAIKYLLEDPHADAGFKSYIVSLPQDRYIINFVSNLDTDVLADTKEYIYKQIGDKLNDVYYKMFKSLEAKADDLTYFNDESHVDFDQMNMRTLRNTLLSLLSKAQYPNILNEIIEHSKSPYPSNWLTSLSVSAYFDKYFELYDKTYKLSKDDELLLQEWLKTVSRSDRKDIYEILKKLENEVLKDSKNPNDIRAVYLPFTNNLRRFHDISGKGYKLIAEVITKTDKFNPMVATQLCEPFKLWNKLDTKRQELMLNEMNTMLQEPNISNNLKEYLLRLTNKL

Fatty acid synthase [12] = target: T6, Fatty acid synthase (Homo sapiens, UniProt P49327); assay: inhibition of human FAS-TE enzyme activity – biochemical, kinetic fluorescence intensity, dose response (AID 624326); type: functional;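 further: rate of fluorescence rise from hydrolysis of a fluorogenic O-methyl fluorescein ester substrate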
Fatty acid synthase [13] = target: T6, Fatty acid synthase; assay: inhibition of human FAS-TE enzyme activity – biochemical, endpoint fluorescence intensity, uHTS hits, dose response (AID 624327); type: functional;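 further: fluorescence from hydrolysis of an O-methyl fluorescein acyl ester substrate by the enzyme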
Nonstructural protein 1 = Nonstructural protein 1 (Influenza A virus, UniProt Q194T2); type: functional, Influenza A virus (A/California/07/2009(H1N1))
Cytochrome P450 2D6 = Cytochrome P450 2D6 (Homo sapiens, UniProt P10635);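 further: CYP2D6 member of a cytochrome P450 panel assay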
[14] = viability of uninfected HEp-2 cells – cell-based, HTS, cytotoxicity control for RSV inhibitor project, dose response (AID 2410); type: functional; settings: human respiratory syncytial virus

Sequence of Voltage-dependent T-type calcium channel subunit alpha-1H (O95180 whole entry): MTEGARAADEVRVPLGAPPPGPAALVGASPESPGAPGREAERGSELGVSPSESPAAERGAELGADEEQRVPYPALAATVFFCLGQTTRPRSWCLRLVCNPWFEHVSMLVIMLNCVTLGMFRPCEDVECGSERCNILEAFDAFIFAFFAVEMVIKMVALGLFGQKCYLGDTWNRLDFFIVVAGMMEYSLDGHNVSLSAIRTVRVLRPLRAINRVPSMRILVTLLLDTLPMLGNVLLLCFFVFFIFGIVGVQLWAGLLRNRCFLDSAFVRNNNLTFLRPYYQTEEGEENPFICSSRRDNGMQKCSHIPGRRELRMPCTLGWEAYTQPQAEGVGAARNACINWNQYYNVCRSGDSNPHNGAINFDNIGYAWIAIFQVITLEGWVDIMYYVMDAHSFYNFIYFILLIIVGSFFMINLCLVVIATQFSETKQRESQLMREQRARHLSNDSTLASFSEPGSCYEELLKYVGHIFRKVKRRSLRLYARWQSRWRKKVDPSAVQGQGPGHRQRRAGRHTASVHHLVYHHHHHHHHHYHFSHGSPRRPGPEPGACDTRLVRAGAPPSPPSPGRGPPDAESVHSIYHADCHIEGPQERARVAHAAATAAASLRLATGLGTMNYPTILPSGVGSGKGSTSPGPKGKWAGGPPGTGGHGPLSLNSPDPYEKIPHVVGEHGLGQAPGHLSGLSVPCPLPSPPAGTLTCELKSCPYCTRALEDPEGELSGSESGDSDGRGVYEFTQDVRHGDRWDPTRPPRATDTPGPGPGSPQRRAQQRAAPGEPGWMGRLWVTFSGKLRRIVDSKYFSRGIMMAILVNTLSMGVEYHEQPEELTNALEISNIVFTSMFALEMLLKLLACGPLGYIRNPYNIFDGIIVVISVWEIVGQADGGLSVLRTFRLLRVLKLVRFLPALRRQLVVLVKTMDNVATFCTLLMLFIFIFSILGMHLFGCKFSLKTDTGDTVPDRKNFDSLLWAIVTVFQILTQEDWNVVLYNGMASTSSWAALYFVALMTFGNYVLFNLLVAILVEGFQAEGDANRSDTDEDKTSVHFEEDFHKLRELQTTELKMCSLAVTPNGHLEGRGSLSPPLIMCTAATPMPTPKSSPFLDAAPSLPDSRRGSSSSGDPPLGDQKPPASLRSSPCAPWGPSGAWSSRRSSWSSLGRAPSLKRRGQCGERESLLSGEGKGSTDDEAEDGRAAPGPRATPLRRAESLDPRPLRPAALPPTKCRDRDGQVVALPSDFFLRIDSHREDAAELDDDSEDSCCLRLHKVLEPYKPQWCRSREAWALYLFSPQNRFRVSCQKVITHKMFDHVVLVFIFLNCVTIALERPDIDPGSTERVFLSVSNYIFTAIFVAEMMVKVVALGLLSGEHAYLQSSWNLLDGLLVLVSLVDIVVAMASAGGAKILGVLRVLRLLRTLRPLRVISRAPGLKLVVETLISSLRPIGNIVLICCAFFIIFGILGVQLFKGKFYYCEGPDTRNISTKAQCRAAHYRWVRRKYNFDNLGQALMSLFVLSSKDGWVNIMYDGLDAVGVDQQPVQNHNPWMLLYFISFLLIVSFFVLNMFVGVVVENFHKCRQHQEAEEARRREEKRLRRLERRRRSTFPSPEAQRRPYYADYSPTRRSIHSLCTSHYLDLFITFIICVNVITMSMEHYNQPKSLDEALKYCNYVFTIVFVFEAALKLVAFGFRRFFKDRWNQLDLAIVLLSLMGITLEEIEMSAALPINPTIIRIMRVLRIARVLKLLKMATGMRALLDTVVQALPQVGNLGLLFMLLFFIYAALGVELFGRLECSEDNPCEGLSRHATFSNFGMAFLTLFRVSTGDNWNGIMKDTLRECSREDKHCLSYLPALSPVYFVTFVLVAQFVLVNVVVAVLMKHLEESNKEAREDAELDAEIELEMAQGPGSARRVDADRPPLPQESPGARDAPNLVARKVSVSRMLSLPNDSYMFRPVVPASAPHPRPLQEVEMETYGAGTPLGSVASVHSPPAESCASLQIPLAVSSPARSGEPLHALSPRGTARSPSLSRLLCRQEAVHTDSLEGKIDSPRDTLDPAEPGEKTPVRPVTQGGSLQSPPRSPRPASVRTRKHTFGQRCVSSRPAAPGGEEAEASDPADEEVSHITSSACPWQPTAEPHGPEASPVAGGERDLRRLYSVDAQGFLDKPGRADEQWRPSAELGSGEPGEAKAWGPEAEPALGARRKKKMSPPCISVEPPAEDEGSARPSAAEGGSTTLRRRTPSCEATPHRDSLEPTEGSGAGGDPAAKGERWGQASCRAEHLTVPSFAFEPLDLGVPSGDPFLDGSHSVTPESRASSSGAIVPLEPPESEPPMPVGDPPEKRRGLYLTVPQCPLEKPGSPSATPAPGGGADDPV
T1 sequence (P11940 whole entry, the tested form may be a part): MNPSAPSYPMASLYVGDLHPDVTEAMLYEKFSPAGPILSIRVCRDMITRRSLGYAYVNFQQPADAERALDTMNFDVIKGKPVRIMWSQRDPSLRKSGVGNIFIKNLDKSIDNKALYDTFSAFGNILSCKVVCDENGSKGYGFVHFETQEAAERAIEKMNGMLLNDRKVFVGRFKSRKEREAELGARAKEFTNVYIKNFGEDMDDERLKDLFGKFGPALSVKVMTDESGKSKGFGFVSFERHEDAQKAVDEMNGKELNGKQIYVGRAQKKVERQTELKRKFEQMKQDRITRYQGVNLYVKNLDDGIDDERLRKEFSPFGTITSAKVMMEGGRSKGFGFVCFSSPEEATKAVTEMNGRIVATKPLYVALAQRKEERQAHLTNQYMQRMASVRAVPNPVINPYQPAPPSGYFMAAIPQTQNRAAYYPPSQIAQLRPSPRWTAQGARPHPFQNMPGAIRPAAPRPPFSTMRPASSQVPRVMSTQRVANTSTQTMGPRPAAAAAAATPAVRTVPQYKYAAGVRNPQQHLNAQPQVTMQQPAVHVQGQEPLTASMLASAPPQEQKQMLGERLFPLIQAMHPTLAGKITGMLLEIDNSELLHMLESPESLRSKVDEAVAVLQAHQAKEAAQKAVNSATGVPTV
T4 sequence (Q9HC16 whole entry): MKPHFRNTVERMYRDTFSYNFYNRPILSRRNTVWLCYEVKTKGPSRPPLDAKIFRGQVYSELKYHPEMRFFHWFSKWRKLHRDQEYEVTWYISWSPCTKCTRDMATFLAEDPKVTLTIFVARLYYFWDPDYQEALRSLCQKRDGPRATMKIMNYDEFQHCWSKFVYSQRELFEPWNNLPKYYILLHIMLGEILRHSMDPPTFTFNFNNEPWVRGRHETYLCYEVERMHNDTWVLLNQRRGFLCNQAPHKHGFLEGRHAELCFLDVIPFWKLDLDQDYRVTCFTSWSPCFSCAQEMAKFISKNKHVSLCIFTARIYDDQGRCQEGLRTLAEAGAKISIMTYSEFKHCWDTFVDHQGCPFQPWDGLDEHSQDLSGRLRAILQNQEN
T3 sequence (P31941 whole entry): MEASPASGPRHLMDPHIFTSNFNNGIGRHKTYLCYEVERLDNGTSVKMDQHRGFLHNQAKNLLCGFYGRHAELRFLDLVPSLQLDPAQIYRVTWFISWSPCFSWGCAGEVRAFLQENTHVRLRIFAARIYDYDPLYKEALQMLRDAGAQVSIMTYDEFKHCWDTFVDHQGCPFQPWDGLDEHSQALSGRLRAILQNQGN
Sequence of Glucose-6-phosphate 1-dehydrogenase (P11413 whole entry): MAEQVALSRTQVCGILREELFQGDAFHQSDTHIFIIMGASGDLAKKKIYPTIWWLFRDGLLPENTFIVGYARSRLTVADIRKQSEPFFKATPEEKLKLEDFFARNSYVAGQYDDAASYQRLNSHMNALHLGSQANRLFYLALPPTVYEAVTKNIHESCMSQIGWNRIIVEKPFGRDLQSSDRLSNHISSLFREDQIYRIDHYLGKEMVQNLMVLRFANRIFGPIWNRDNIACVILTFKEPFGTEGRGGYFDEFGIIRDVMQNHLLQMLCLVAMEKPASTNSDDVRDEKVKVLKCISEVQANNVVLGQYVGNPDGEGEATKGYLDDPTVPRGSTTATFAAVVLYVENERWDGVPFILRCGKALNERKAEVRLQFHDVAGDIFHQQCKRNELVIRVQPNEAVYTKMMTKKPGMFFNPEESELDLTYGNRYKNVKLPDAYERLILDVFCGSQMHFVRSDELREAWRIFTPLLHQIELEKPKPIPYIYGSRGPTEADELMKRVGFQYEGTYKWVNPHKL
Sequence of Nonstructural protein 1 (Q194T2 whole entry): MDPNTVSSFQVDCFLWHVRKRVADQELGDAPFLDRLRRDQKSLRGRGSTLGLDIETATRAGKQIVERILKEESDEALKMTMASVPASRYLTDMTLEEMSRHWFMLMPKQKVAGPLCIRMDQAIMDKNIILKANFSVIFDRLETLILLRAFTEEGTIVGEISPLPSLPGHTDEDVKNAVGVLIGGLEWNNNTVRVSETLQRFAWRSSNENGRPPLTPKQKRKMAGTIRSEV
Sequence of Cytochrome P450 2D6 (P10635 whole entry): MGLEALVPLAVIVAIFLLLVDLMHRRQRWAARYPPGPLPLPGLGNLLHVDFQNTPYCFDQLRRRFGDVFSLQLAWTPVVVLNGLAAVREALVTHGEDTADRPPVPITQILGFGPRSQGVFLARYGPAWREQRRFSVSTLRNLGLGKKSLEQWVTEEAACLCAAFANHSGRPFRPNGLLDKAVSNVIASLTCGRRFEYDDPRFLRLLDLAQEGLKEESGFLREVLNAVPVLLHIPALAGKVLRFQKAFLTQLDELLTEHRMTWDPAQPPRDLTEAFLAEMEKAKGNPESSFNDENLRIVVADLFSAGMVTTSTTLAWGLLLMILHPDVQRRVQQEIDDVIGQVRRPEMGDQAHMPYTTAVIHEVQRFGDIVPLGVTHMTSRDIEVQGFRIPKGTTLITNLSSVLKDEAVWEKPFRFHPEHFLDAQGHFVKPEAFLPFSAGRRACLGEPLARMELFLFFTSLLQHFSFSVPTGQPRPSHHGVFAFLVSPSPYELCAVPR

With `C/C(=N\NC(=S)NCCc1ccccc1)c1cccc(Br)c1` the IC50 [1] was > 66 µM (inactive) and the IC50 [2] was > 66 µM (inactive).
With `[O-]/[N+](=C\c1ccncc1)c1ccccc1` the IC50 [3] was > 80 µM (inactive).
In the case of `O=C(O)c1cccc(S(=O)(=O)Nc2ccc(O)cc2Sc2nc3ccccc3s2)c1`, the IC50 (Leucine aminopeptidase) is reported as 9.02 µM (active).
In the case of `O=C(CSc1ccccn1)Nc1cccc2ccccc12`, the IC50 [4] is reported as 8.82 µM (active) and the IC50 [5] is reported as 6 µM (active).
For `COc1cccc(-c2cc(C(=O)Nc3cc(C)n(Cc4ccc(Cl)cc4)n3)no2)c1`, the IC50 [6] was > 80 µM (inactive).
For `CCN1CCN(Cc2ccc(NC(=O)Nc3ccc(OC)cc3)cc2)CC1`, the IC50 (Leucine aminopeptidase) was 25.1 µM (active).
With `O=S(=O)(c1cccc(-c2nnc(S)n2Cc2ccccc2)c1)N1CCOCC1` the IC50 [7] was > 100 µM (inactive) and the IC50 [8] was 4.28 µM (active).
For `Cc1cccc(NC(=O)CSc2nc3ccccc3o2)c1`, the EC50 [9] was 4.44 µM (active).
With `FC(F)(F)c1nc(N2CCCC2)ncc1-c1nnnn1-c1ccc(Cl)cc1` the EC50 [9] was 14.6 µM (active).
For `COc1ccc(C2NC(=O)c3sc(=S)n(-c4ccccc4)c3N2)cc1` (stereo not drawn), the EC50 [10] was 21.6 µM (active), the EC50 [9] was 1.23 µM (active) and the EC50 [11] was 22.6 µM (active).
In the case of `O=C(NNC(=S)NCCc1ccccc1)c1ccc(Br)s1`, the IC50 (Aminopeptidase N) is reported as 9.19 µM (active).
With `O=C(O)CCCNC(=O)/C(=C\C=C\c1ccccc1)NC(=O)c1ccccc1Cl` the IC50 (Leucine aminopeptidase) was 86.8 µM (active).
With `O=C(c1ccc([N+](=O)[O-])cc1)N1CCC(Cc2ccccc2)CC1` the IC50 (Fatty acid synthase [12]) was 8.61 µM (active) and the IC50 (Fatty acid synthase [13]) was 10.9 µM (active).
In the case of `CCN1C(=O)/C(=C/NNC(=O)c2ccncc2)C(=O)NC1=S`, the IC50 (Nonstructural protein 1) is reported as 13.3 µM (active) and the IC50 (Aminopeptidase N) is reported as 85.1 µM (active).
For `Cc1c(Cl)c([N+](=O)[O-])nn1Cc1ccc(C(=O)N/N=C\c2cccc(Br)c2)o1`, the AC50 (Cytochrome P450 2D6) was 25.1 µM (inconclusive), the CC50 [14] was 39.4 µM (active) and the IC50 [3] was > 80 µM (inactive).
In the case of `Cc1ccc(NC(=O)CC2SC3=NCCN3C2=O)cc1` (stereo not drawn), the IC50 [1] is reported as > 66 µM (inactive) and the IC50 [2] is reported as > 66 µM (inactive).
In the case of `COc1ccc(N2C(=O)CC(Sc3n[nH]c(-c4ccccc4)n3)C2=O)cc1` (stereo not drawn), the IC50 [7] is reported as > 100 µM (inactive) and the IC50 [8] is reported as 14.9 µM (active).
